Experimental data: PMC7191901, “Hybrid inhibitors of DNA and HDACs remarkably enhance cytotoxicity in leukaemia cells” (Journal of Enzyme Inhibition and Medicinal Chemistry, 2020)
“Also recorded” adds a separate entry of the source. Read-outs that look alike come from different tables or passages of the source.

How the values were obtained:
[1] = system: Ac-α-tubulin and Ac-histone H3; assay type: cell-based, human
[2] = system: MCF-7/ADR cells; assay: cells; assay type: cell-based; conditions: Homo sapiens, NCI/ADR-RES, 72 h, read-out: GI50, MCF-7/ADR
[3] = system: PARP, caspase 3, and caspase 8; assay type: cell-based, human
[4] = system: MCF-7 cells; assay: Cell proliferation (MTS) assay, MCF-7; assay type: cell-based; conditions: Homo sapiens, MCF7, 72 h, read-out: GI50 values, MCF-7
[5] = system: H1975 cells; assay: cells; assay type: cell-based; conditions: Homo sapiens, NCI-H1975, 72 h, read-out: GI50, H1975
[6] = system: U266 cells; assay: cells; assay type: cell-based; conditions: Homo sapiens, U-266, 72 h, read-out: GI50, U266
[7] = system: A2780 cells; assay: Cell proliferation (MTS) assay, A2780; assay type: cell-based; conditions: Homo sapiens, read-out: GI50 values, A2780
[8] = system: MDA-MB-231 cells; assay: Cell proliferation (MTS) assay, MDA-MB-231; assay type: cell-based; conditions: Homo sapiens, read-out: GI50 values, MDA-MB-231
[9] = system: A549 cells; assay: cells; assay type: cell-based; conditions: Homo sapiens, A549, 72 h, read-out: GI50, A549
[10] = system: HL-60 cells; assay: Cell proliferation (MTS) assay, HL-60; assay type: cell-based; conditions: Homo sapiens, read-out: GI50 values, HL-60
[11] = system: U-937 cells; assay: Cell proliferation (MTS) assay, U-937; assay type: cell-based; conditions: Homo sapiens, read-out: GI50 values, U-937
[12] = system: HL-60 cells; assay type: cell-based, human
[13] = system: HL-60 cells; assay type: cell-based, human; remark: listed apart in the source
[14] = A2780, 3 days (72 h), MTS assay
[15] = MDA-MB-231, 3 days (72 h), MTS assay
[16] = HL-60, 3 days (72 h), MTS assay
[17] = U-937, 3 days (72 h), MTS assay

Row | SMILES | acetylation of α-tubulin and histone H3 [1] | GI50 [2] [µM] | concentration required to induce the cleavage of PARP, caspase 3, and caspase 8 [3] [µM] | GI50 [4] [µM] | GI50 [5] [µM] | GI50 [6] [µM] | GI50 ([7]; A2780, 72 h) [µM] | GI50 ([8]; MDA-MB-231, 72 h) [µM] | GI50 [9] [µM] | GI50 ([10]; HL-60, 72 h) [µM] | GI50 ([11]; U-937, 72 h) [µM] | % DNA content in the tail [12] [%] | G2/M fraction [13] [%] | GI50 ([4]; 3 days, MTS assay) [µM] | GI50 [7, 14] [µM] | GI50 [8, 15] [µM] | GI50 [10, 16] [µM] | GI50 [11, 17] [µM]
1 | O=C(O)CCCc1ccc(N(CCCl)CCCl)cc1 [Chlorambucil] | failed to induce the acetylation of α-tubulin and histone H3; also recorded: little acetylation of α-tubulin and histone H3 | > 100 | 30 | 393 | > 100 | > 100 | > 100 | > 100 | > 100 | 21.1 | 37.7 | 2.1 | 32.2 | – | – | – | – | –
2 | Nc1ccc(CCCC(=O)NO)cc1 [Compound 7, 4–(4-Aminophenyl)-N-hydroxybutanamide] | – | – | – | – | – | – | – | – | – | – | – | – | – | 393 | > 100 | > 100 | 60.5 | 93
3 | CCN(CC)c1ccc(CCCC(=O)NO)cc1 [Compound 8a, 4–(4-(Diethylamino)phenyl)-N-hydroxybutanamide] | – | – | – | – | – | – | – | – | – | – | – | – | – | 282 | 81 | 85.1 | 70.3 | > 100
4 | CCCN(CCC)c1ccc(CCCC(=O)NO)cc1 [Compound 8b, 4–(4-(Dipropylamino)phenyl)-N-hydroxybutanamide] | – | – | – | – | – | – | – | – | – | – | – | – | – | 37.8 | 7.79 | 66.8 | 34.4 | 40.2
